Data reported in publication PMC8428568, “Discovery of re-purposed drugs that slow SARS-CoV-2 replication in human cells” (PLoS Pathogens, 2021).
Structures can show the parent of a compound that is named as a salt. Where two headings read alike, the source gives them in different places. *1 amine or outer side, *2 acyl side, *3 side chain or, on linkers, in order; H or OH if unused. Where a SMILES comes first, the peptide text is derived from it. Bridges are numbered along the chain shown (N, C = ends). [ ]: non-standard residue; d: D form. The star is where a group is joined. pTerphenylCO(4''-OnC5H11) = CCCCCOc1ccc(-c2ccc(-c3ccc(C(=O)*)cc3)cc2)cc1; Orn(4R-OH,5R-OH) = O=C([C@H](C[C@@H](O)[C@@H](O)N[*:3])N[*:1])[*:2]; hTyr(3S-OH,4S-OH) = N[C@H](C(=O)O)[C@H](O)[C@@H](O)c1ccc(O)cc1; Pro(3S-OH,4S-Me) = C[C@H]1CN[C@H](C(=O)O)[C@H]1O; Hyp = O=C(O)[C@@H]1C[C@@H](O)CN1

Assays:
[1] = system: SARS-CoV-2-ΔOrf7a-NLuc virus; test: microbe, parasite or virus in culture; format: cell-based; conditions: for activity at 10 µM: Severe acute respiratory syndrome coronavirus 2, Vero, 72 h, read-out: Mean relative luminescence (n=4); for activity at 10 µM / Mean relative luminescence (n=4): 1 = untreated, 0 = total inhibition
recombinant NLuc = format: biochemical; conditions: for Relative Recombinant NLUC: recombinant NLuc activity relative to DMSO; for Reads Counts per second (read 1) / Reads Counts per second (read 4) / Reads Counts per second (read 2) / Reads Counts per second (read 3): recombinant NLuc; for Reads Counts per second (read 1): first read column; for Reads Counts per second (read 4): fourth read column; for Reads Counts per second (read 3): third read column
[2] = Vero cells, 10 μM, 1 = DMSO-treated infected cells

Compound | % activity in Vero 100PFU screen [1] [%] | activity at 10 µM [1] [%] | Relative Recombinant NLUC (recombinant NLuc) | Reads Counts per second (read 1) (recombinant NLuc) [Counts per second] | Reads Counts per second (read 4) (recombinant NLuc) [Counts per second] | Reads Counts per second (read 2) (recombinant NLuc) [Counts per second] | Reads Counts per second (read 3) (recombinant NLuc) [Counts per second] | PrestoBlue relative viability (Vero cells; [2]) | Mean relative luminescence (n=4) [1] | PrestoBlue relative viability (Vero cells; African green monkey)
C[C@]12CC[C@H](O)CC1=CC[C@@H]1[C@@H]2CC[C@]2(C)C(c3cccnc3)=CC[C@@H]12 [Abiraterone] | 6.46 | 6.48 | 0.7592 | 279631 | 289231 | 289523 | 288897 | 0.5649 | – | –
CCCCCOc1ccc(-c2ccc(-c3ccc(C(=O)N[C@H]4C[C@@H](O)[C@@H](O)NC(=O)[C@@H]5[C@@H](O)[C@@H](C)CN5C(=O)[C@H]([C@@H](C)O)NC(=O)[C@H]([C@H](O)[C@@H](O)c5ccc(O)cc5)NC(=O)[C@@H]5C[C@@H](O)CN5C(=O)[C@H]([C@@H](C)O)NC4=O)cc3)cc2)cc1 [Anidulafungin] ({pTerphenylCO(4''-OnC5H11)}-[Orn(4R-OH,5R-OH)]T[Hyp][hTyr(3S-OH,4S-OH)]T[Pro(3S-OH,4S-Me)]; lactam 1-C) | 4.57 | 2.32 | 0.974 | 365229 | 366012 | 376574 | 364202 | 0.5453 | – | –
COc1ccc(-n2nc(C(N)=O)c3c2C(=O)N(c2ccc(N4CCCCC4=O)cc2)CC3)cc1 [Apixaban] | – | 0.124 | – | – | – | – | – | 2.564 | – | –
O=C(/C=C/c1cccc(S(=O)(=O)Nc2ccccc2)c1)NO [Belinostat (PXD101), Belinostat] | 4.67 | 0.0366 | 0.9408 | 351877 | 355423 | 362403 | 352055 | 0.895 | – | –
Clc1ccc(CCC(Cn2ccnc2)Sc2c(Cl)cccc2Cl)cc1 (stereo not drawn) [Butoconazole nitrate] | – | 11.6 | – | – | – | – | – | 0.6922 | – | –
C=CC(=O)Nc1cccc(Nc2nc(Nc3ccc(N4CCN(C(C)=O)CC4)cc3OC)ncc2C(F)(F)F)c1 [CO-1686 (AVL-301)] | 3 | – | 0.8551 | 327566 | 319872 | – | 324163 | 0.5096 | 0.02339 | –
COc1cc2c(Oc3ccc4[nH]c(C)cc4c3F)ncnc2cc1OCCCN1CCCC1 [Cediranib (AZD217), Cediranib] | 3.31 | 2.67 | 0.9439 | 350524 | 362844 | – | 354116 | 0.559 | – | –
CC(C)C(=O)OCC(=O)[C@@]12O[C@H](C3CCCCC3)O[C@@H]1C[C@H]1[C@@H]3CCC4=CC(=O)C=C[C@]4(C)[C@H]3[C@@H](O)C[C@@]12C [Ciclesonide] | – | 14.1 | – | – | – | – | – | 0.5125 | – | –
Clc1ccccc1C(c1ccccc1)(c1ccccc1)n1ccnc1 [Clotrimazole] | – | 13.9 | – | – | – | – | – | 1.057 | – | –
C#C[C@]1(O)CC[C@H]2[C@@H]3CCC4=CCCC[C@@H]4[C@H]3C(=C)C[C@@]21CC [Desogestrel] | – | 14.5 | – | – | – | – | – | 0.6657 | – | –
Cc1cc(Nc2cc(CN3CCOCC3)c3nc(C)c(Cc4ccc(Cl)cc4F)n3n2)n[nH]1 [LY2784544] | – | 0.145 | – | – | – | – | – | 0.7859 | – | –
Nc1cccc2c1CN(C1CCC(=O)NC1=O)C2=O (stereo not drawn) [Lenalidomide (CC-5013), Lenalidomide] | – | 0.218 | – | – | – | – | – | 2.058 | – | –
CCN1C[C@H](C)n2c(c(O)c3c(=O)n(Cc4ccc(F)c(Cl)c4)nc(C(=O)NC)c32)C1=O [MK-2048] | – | – | – | – | – | – | – | 2.267 | 0.000491 | –
C[C@](N)(Cc1ccc(O)c(O)c1)C(=O)O [Methyldopa] | 175 | – | 0.9666 | 361429 | 367357 | – | 364798 | – | – | –
NC(=O)c1ccc[n+]([C@@H]2O[C@H](COP(=O)([O-])OP(=O)(O)OC[C@H]3O[C@@H](n4cnc5c(N)ncnc54)[C@H](O)[C@@H]3O)[C@@H](O)[C@H]2O)c1 [NAD+] | 164 | – | 1.016 | 385544 | 376264 | – | 386401 | – | – | –
Cc1ccnc2c1NC(=O)c1cccnc1N2C1CC1 [Nevirapine] | 187 | – | 0.9932 | 371882 | 373316 | – | 379254 | – | – | –
COc1ccc2c(c1OC)C(=O)O[C@@H]2[C@H]1c2c(cc3c(c2OC)OCO3)CCN1C [Noscapine HCl] | 213 | – | 0.9502 | 358232 | 354994 | – | 362883 | – | – | –
CN(C(=O)CN(CCO)CC(=O)N(C)C(C)(C)Cc1ccccc1)C(C)(C)Cc1ccccc1 [Oxethazaine] | 167 | – | 0.8736 | 330534 | 321724 | – | 331517 | – | – | –
CCc1ccc(CCOc2ccc(CC3SC(=O)NC3=O)cc2)nc1 (stereo not drawn) [Pioglitazone HCl] | – | 0.204 | – | – | – | – | – | – | – | 3.485
COc1ccccc1OCC(O)CN1CCN(CC(=O)Nc2c(C)cccc2C)CC1 (stereo not drawn) [Ranolazine] | 167 | – | 0.9679 | 359507 | 367791 | – | 367539 | – | – | –
CN(CCOc1ccc(CC2SC(=O)NC2=O)cc1)c1ccccn1 (stereo not drawn) [Rosiglitazone] | – | 0.183 | – | – | – | – | – | 3.111 | – | –
N#CC[C@H](C1CCCC1)n1cc(-c2ncnc3[nH]ccc23)cn1 [Ruxolitinib (INCB018424), Ruxolitinib] | 169 | – | 0.8381 | 314540 | 316727 | – | 317488 | – | – | –
N[C@@H](CC(=O)N1CCn2c(nnc2C(F)(F)F)C1)Cc1cc(F)c(F)cc1F [Sitagliptin phosphate monohydrate] | – | 0.0141 | – | – | – | – | – | 2.5607 | – | –
CCCCCCCCCCCCCCCC[N+](C)(C)CCN(Cc1ccc(OC)cc1)c1ncccn1 [Thonzonium Bromide] | – | 10.4 | – | – | – | – | – | 0.6049 | – | –
Oc1cc(Cl)ccc1Oc1ccc(Cl)cc1Cl [Triclosan] | – | 10.6 | – | – | – | – | – | 0.5234 | – | –
(+)-Catechin hydrate | 160 | – | 0.9621 | 362209 | 367703 | 357899 | 366108 | – | – | –
Bivalirudin Trifluoroacetate | 172 | – | 0.8139 | 309590 | 301908 | 311058 | 307409 | – | – | –
